{"source": "patent US20060148763A1", "about": "“Compounds and methods for regulating triglyceride levels” (priority 2005, published 2006)", "key": {"[1]": {"test_system": "serum triglyceride levels", "experiment": "14-week open-label forced dose-escalation study of P5P in hypertensive diabetic patients: triglyceride level", "type": "in vivo, human", "settings": "for Triglycerides, Percentage Difference: average Visit 12 vs Visit 1", "protocol": "Overview—The study was a 14-week, open-label, forced, dose-escalation study of the efficacy and safety of P5P administered once daily over a dose range of 250 mg to 750 mg, for the treatment of mild to moderate hypertension and hyperlipidemia, in patients with coexisting diabetes mellitus.\nPatient Definition—Patients meeting all of the inclusion criteria and none of the exclusion criteria were eligible for enrollment. The primary inclusion criteria were hypertension and diabetes. […] Other than having diabetes and hypertension, patients must have been in good health for their age. A history and physical examination must have been within age-related normal limits, or if abnormal, considered clinically insignificant in the opinion of the investigator. Laboratory tests (CBC with differential, prothrombin and partial thrombo-plastin times, platelet count, and urinalysis and blood chemistry panel), must have been normal, or if abnormal, considered clinically insignificant.\nExclusion criteria included the presence or history (past 12 months) of accelerated or malignant hypertension, as evidenced by hemorrhage and/or exudate, and/or papilloedema on funduscopic examination. Patients having a history of angioedema of the face, lips, tongue, glottis or larynx when treated with ACE inhibitors were excluded. Patients having a diastolic BP>114 mm Hg, and/or systolic BP>200 mm Hg at screening were excluded. Patients with similar readings at the end of the placebo lead-in period were dropped from further participation in the study. During the placebo lead-in period patients who had signs of bradycardia (<45 bpm) or a resting heart rate of >100 bpm were not advanced to the next stage of the study, but rather dropped from further participation.\nExclusion criteria included the presence or history (past 6 months) of myocardial infarction or cerebrovascular accident and clinically significant cardiac pathology such as congestive heart failure, cardio-genic shock, non-controlled arrhythmias, acute myocarditis or pericarditus, significant valvular or congestive heart disease and unstable angina pectoris; presence or evidence of atrioventricular block (second/third degree), or sick sinus syndrome, or any other conduction defect or abnormality including the presence/history of atrial fibrillation or flutter, associated with pre-excitation syndrome; clinically significant gastrointestinal disease, renal insufficiency (serum creatinine […]), hepatic disease, or electrolyte imbalance (serum potassium <3.5 or >5.3 mmol/L, serum sodium <136->145 mmol/L); presence of bronchial asthma or chronic obstructive pulmonary disease; or the presence of any clinically significant concomitant disease that in the opinion of the investigator could interfere with the patient's participation in the study, or confound the outcome variables. Patients having any clinically significant concomitant disease that could interfere with the patient's participation in the study, or confound the outcome variables were excluded. Patients with a history of alcohol abuse or illicit drug use in the 12 months prior to beginning this protocol were excluded. Patients with a terminal illness were excluded. Patients with an arm circumference >41 cm were excluded. Pregnant females, women who were breast-feeding or women of child-bearing potential must have used adequate contraception. Patients who have had therapy with an investigational compound within 30 days prior to entry into the study were excluded. The use of the following medications was cause for exclusion, each had to have been safely discontinued prior to the placebo lead-in phase of the study, and must been withheld until the protocol had been completed: all diuretics and antihypertensive drugs (including beta-blockers, calcium-channel blockers, vasodilators, ACE inhibitors), MAO inhibitors, all anti-arrhythmic drugs, digitalis, major tranquilizers, antidepressants, cimetidine, corticosteroids, and antineoplastics. […]"}, "[2]": {"test_system": "total serum cholesterol (TC)", "experiment": "Phase II cross-over study of P5P alone and with lisinopril in hypertensive type 2 diabetic patients: total cholesterol", "type": "in vivo, human", "settings": "for reduction in serum TC levels (placebo corrected): patients having elevated TC levels (>5.15 mmol/L)", "protocol": "Objective—A phase II clinical study was conducted to determine the effects of pyridoxal-5′-phosphate in combination with lisinopril on blood pressure and metabolic function in hypertensive patients with type 2 diabetes.\nSummary of Study Design—The phase II study was a randomized, parallel group, cross-over, double-blinded to study medication, placebo-controlled comparison of P5P BID at total daily doses of 100, 300, or 1000 mg alone and in combination with 20 mg lisinopril given once daily (QD). In order to protect against antihypertensive and metabolic carry-over effects of lisinopril, all patients were randomized in 2 different treatment sequences. Patients randomized in the first treatment sequence receive an 8-week treatment with lisinopril 20 mg and P5P (or placebo) and then an 8-week treatment with P5P alone (or placebo). Patients randomized in the second treatment sequence receive an 8-week treatment with P5P alone and then an 8-week treatment with lisinopril 20 mg and P5P (or placebo). In each treatment sequence, all patients were randomized to P5P at the different prespecified dosages.\nMean trough sitting and standing BP were measured at each visit. Twenty-four hour ambulatory BP monitoring (ABPM) were performed at Visit 2 prior to randomization (end of washout period) and after week 8 (Visit 5) and week 16 (Visit 8) weeks of active therapy. Laboratory tests were performed at screening (Visit 1), prior to randomization (Visit 2), at week 2 (Visit 3a), week 8 (Visit 5), week 10 (Visit 6a), and at week 16 (Visit 8).\nTreatment Plan—Two to Four-week Washout (Baseline) Period. Patients were instructed on the proper procedure for discontinuing their current antihypertensive medications (discontinuation or tapering) according to the manufacturer's label specifications. If a patient's current antihypertensive treatment needed to be tapered earlier, the Investigator complied with the corresponding timelines before randomization. With the exception of any tapering off of prior therapy, if any, no other anti-hypertensive medication was given to the patient during the washout period. Patients continued any existing diabetic treatment with sulfonylureas (tolbutamide, tolazamide, acetohexamide, chlorpropamide and second generation glyburide, glipizide, glimepiride), D-Phenylalanine derivatives, metformin, thiazolidinediones, acarbose, miglitol, and/or insulin throughout the study. Patients received placebo to be taken twice daily during the washout period. Standard diabetic medication was maintained throughout study. The duration of the washout period was two to four weeks, at the discretion of the Investigator taking into consideration whether the patient's blood pressure had stabilized following removal of any prior antihypertensive medication.\nActive (Study) Medication Period: After the washout period, eligible patients were randomized to one of the 2 following sequences of treatment for 16 weeks.\nWeek 0 to 8: Treatment period (P5P alone (or placebo) or P5P (or placebo) and Lisinopril)\nWeek 8 to 16: Treatment period (P5P alone (or placebo) or P5P (or placebo) and Lisinopril)\nStudy Groups—The patients were randomized into one of […] groups:\nSequence 1 P5P 300 mg and then P5P 300 mg+Lisinopril 20 mg\nSequence 2 P5P 300 mg+Lisinopril 20 mg and then P5P 300 mg alone\nAll medications were taken at the same time each day during washout and treatment periods:\nOther Efficacy Endpoints—Analytical efficacy measurements, including markers of metabolic function (insulinemia, fasting serum glucose, glycated hemoglobin, LDL, HDL, non-HDL and triglycerides), endothelial function (ICAM-1, VCAM-1, E-selectin and albuminuria), kidney function (creatinine, glomular filtration rate), CRP and homocysteine, were conducted on blood samples taken on Visits 2, 5 and 8. Samples were sent to a central laboratory for analysis."}, "[3]": {"settings": "P5P 300 mg, patients with TC >5.18 mmol/L"}}, "note": "Where “and” joins values, the source holds several entries; their conditions need not be identical. Identical values can stand only once."}
{"smiles": "Cc1ncc(COP(=O)(O)O)c(C=O)c1O", "note": "[P5P, pyridoxal-5′-phosphate]", "values": [{"measurement": "Triglycerides, Percentage Difference", "setting": "[1]; Table 2", "value": "−22.1", "unit": "%"}, {"measurement": "Triglycerides, Visit 1, Average", "setting": "[1]; Table 2, average of 11 patients, screening, before treatment", "value": 246.1, "unit": "mg/dL"}, {"measurement": "Triglycerides, Visit 12, Average", "setting": "[1]; Table 2, average of 11 patients, week 14", "value": 191.5, "unit": "mg/dL"}, {"measurement": "Triglycerides, Percentage Difference", "setting": "[1]; Table 3, elevated triglycerides (>150 mg/dL)", "value": "−25.7", "unit": "%"}, {"measurement": "Triglycerides, Visit 1, Average", "setting": "[1]; Table 3, elevated triglycerides (>150 mg/dL), average of 7 patients, screening", "value": 326.9, "unit": "mg/dL"}, {"measurement": "Triglycerides, Visit 12, Average", "setting": "[1]; Table 3, elevated triglycerides (>150 mg/dL), average of 7 patients, week 14", "value": 242.9, "unit": "mg/dL"}, {"measurement": "Triglycerides, Visit 1", "setting": "[1]; Table 3, patients with elevated triglycerides (>150 mg/dL), individual patients, screening, before treatment", "value": "150 mg/dL and 601 mg/dL and 188 mg/dL and 180 mg/dL and 530 mg/dL and 442 mg/dL and 197 mg/dL"}, {"measurement": "Triglycerides, Visit 12", "setting": "[1]; Table 3, patients with elevated triglycerides (>150 mg/dL), individual patients, week 14", "value": "166 mg/dL and 268 mg/dL and 160 mg/dL and 305 mg/dL and 286 mg/dL and 302 mg/dL and 213 mg/dL"}, {"measurement": "reduced triglyceride levels by (average)", "setting": "[1]; hypertensive diabetic patients, end of 14 week study", "value": "approximately 22.1%"}, {"measurement": "reduced triglyceride levels by (average)", "setting": "[1]; patients having elevated triglyceride levels (>150 mg/dL) prior to the study", "value": "approximately 25.7%"}, {"measurement": "TC change vs baseline (b)", "setting": "[2]; P5P 300 mg, TC non-stratified", "value": "−0.18 mmol/L (p = 0.273)b"}, {"measurement": "reduction in serum TC levels (placebo corrected)", "setting": "[2]; P5P 300 mg", "value": "about 0.91 mmol/L"}, {"measurement": "TC change", "setting": "[2]; [3]", "value": "−0.91 mmol/L (p = 0.02)"}, {"measurement": "TC reduction vs baseline (b)", "setting": "[2]; [3]", "value": "(15.7%)b"}, {"measurement": "TC change vs baseline (b)", "setting": "[2]; P5P 1000 mg, TC non-stratified", "value": "−0.29 mmol/L (p = 0.075)b"}, {"measurement": "reduction in serum TC levels (placebo corrected)", "setting": "[2]; P5P 1000 mg", "value": "about 1.03 mmol/L"}, {"measurement": "TC change vs baseline (b)", "setting": "[2]; P5P 1000 mg, patients with TC >5.18 mmol/L", "value": "−1.03 mmol/L (p = 0.001)b"}]}
